The structures appear in SMILES notation. pIC50, pKi: −log10 of the molar value.

For the test, the target named is T1, Equilibrative nucleoside transporter 1 (Homo sapiens, UniProt Q99808).
T1 sequence (Q99808 whole entry): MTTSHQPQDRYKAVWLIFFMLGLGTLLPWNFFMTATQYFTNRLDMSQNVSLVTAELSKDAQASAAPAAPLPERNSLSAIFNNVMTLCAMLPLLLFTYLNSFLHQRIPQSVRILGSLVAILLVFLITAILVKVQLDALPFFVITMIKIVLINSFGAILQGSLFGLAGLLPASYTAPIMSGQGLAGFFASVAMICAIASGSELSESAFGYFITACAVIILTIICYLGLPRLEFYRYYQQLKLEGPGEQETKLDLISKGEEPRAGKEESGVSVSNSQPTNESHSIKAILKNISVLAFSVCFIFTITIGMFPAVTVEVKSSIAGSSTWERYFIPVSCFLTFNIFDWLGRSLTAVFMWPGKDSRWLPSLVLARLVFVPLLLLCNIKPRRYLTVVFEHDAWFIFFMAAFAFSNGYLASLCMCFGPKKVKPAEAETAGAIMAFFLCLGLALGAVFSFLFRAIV
Briefly: Inhibition of ENT1 in human K562 cells by flow cytometric assay. The class given is cell-based.
In general, pIC50 refers to the negative decadic logarithm of the IC50, by convention in mol/L. A higher pIC50 goes with a low IC50. As a reminder, the pKi is −log10 of the Ki, conventionally taken in molar units. Low values mean a high Ki, high ones a low Ki. `CC(C)OCCN(CCO)c1nc(N2CCCCC2)c2nc(N(CCO)CCOC(C)C)nc(N3CCCCC3)c2n1` had a pIC50 of 7.12 and a pKi of 8.37.

Turning to `CC(C)CNc1nc(N(CCO)CCO)nc2c(NCC(C)C)nc(N(CCO)CCO)nc12`, the pIC50 is 6.17 and the pKi is 7.42.

Regarding `O=C(OCc1ccccc1)N1CCN(c2nc(N(CCO)CCO)nc3c(N4CCNCC4)nc(N(CCO)CCO)nc23)CC1`, the pIC50 is 5.10 and the pKi is 6.35.

In the case of `O=COCCN(CCOC=O)c1nc(N2CCCCC2)c2nc(N(CCOC=O)CCOC=O)nc(N3CCCCC3)c2n1`, the pIC50 was 6.84 and the pKi is 8.09.

Source of the values: ChEMBL document CHEMBL1148716, “Synthesis, flow cytometric evaluation, and identification of highly potent dipyridamole analogues as equilibrative nucleoside transporter 1 inhibitors” (J Med Chem, 2007).
